This is an account of results in ChEMBL document CHEMBL1201862, “PubChem BioAssay data set” (2004).

What all share (assay): DTP human tumour cell line panel, 48 h
In test [1] the test system is MDA-MB-231.
The test system of test [2] is SK-OV-3.
Test [3] deals with CCRF-CEM.
Test [4] concerns TK-10.
Test [5] concerns MCF7.
Test [6] has as its system SF-539.
In test [7] the test system is SF-295.
The subject of test [8] is IGROV-1.
The subject of test [9] is MDA-MB-435.
Test [10] relates to NCI-H23.
Test [11] has as its system BT-549.
Test [12] concerns NCI-H460.
In test [13] the test system is LOX IMVI.
Test [14] concerns OVCAR-5.
Test [15] concerns HCT-15.
The subject of test [16] is Malme-3M.
Test [17] has as its system HL-60.
Test [18] concerns T47D.
The subject of test [19] is SK-MEL-5.
Test [20] relates to MDA-N.

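Dose response: 5 concentrations. Exposure: 48 h. Format: 96-well plates. Endpoint: linear interpolation; highest concentration if not reached. GI50 marks 50% less growth.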 Calls of active or inactive are those of the source. Rule as the data show it: active = GI50 up to about 1.1 µM and inactive = higher.

Take `CCNC(=O)Cc1nc2c(O)ncnc2n1C1OC(CO)C(O)C1O` (stereo not given): the GI50 in test [1], in test [2], in test [3], in test [4], in [5] and in [6] was > 100 µM (inactive) throughout. Further, the GI50 in [7], in test [8], in [9], in [10], in test [11] and in test [12] was > 100 µM (inactive) each time. For the same compound, the GI50 in test [13] was > 100 µM (inactive); in test [14] it was > 100 µM (inactive); in test [15] it was over 100 µM; in test [16] it was > 100 µM (inactive); in test [17], > 100 µM (inactive); in test [18] it was > 100 µM (inactive). In addition, the GI50 in [19] and in [20] was > 100 µM (inactive) each time.

Regarding `Cc1ccccc1N(C)S(=O)(=O)c1ccccc1[N+](=O)[O-]`, the GI50 in test [1] is 22.3 µM (inactive); in [2], 53.6 µM (inactive); in [3] it was 35.8 µM (inactive); in test [4], > 100 µM (inactive); in test [5], 42.5 µM (inactive); in test [6], 36.5 µM (inactive). Besides, the GI50 in test [7] was 42.5 µM (inactive); in [8] it was > 100 µM (inactive); in [9], 33.4 µM (inactive); in test [10], 31.5 µM (inactive); in test [11] it was 33 µM (inactive); in test [12] it was 36.1 µM (inactive). Further, the GI50 in [13] is 55.3 µM (inactive); in [14], 66.7 µM (inactive); in test [15] it was 57.9 µM; in [16], > 100 µM (inactive); in [17] it was 27.9 µM (inactive); in test [18], 58.1 µM (inactive). For the same compound, the figures for the GI50 in test [19] and in test [20] were 15.4 µM (inactive) and 45.5 µM (inactive), respectively.

With `C[C@H](Nc1nc(N)c(N=O)c(=O)n1C)C(=O)O`, the GI50 in test [1], in test [2], in [3], in [4], in [5] and in test [6] was > 10 µM (inactive) in each case. Further, the GI50 in test [7], in test [8], in test [9], in test [10], in test [11] and in test [12] was > 10 µM (inactive) in each case. In addition, the GI50 in test [13] is > 10 µM (inactive); in test [14], > 10 µM (inactive); in test [15] it was over 10 µM; in test [16], > 10 µM (inactive); in [17], > 10 µM (inactive); in test [18], > 10 µM (inactive). Moreover, the GI50 in test [19] and in test [20] was > 10 µM (inactive) throughout.

One may read the GI50 as the concentration that inhibits growth by half.
